Measured values published in patent US20240199614A1, “MACROCYCLIC EGFR INHIBITORS FOR THE TREATMENT OF CANCER” (Theseus Pharmaceuticals, Inc., priority 2021, published 2024).

Key:
Ba/F3 EGFR-Del19/T790M = Ba/F3 EGFR-Del19/T790M (Homo sapiens, UniProt P00533, T790M, cells depend on it, form not given); assay: Ba/F3 viability assay (CellTiter-Glo), BAF3 DT; type: cell-based; settings: Ba/F3 EGFR-Del19/T790M cell viability
Description: (§1) The biological activity of compounds described herein were studied according to standard methods known in the art. Methods were used to study inhibition of EGFR, including mutant forms of EGFR comprising L858R, T790M, C797S, and/or Del19 mutations, or any combination thereof (e.g., L858R single, double, or triple mutants). Exemplary, non-limiting methods are described herein.
(§2) Inhibition of cell proliferation was studied using Ba/F3 viability assays, including the Promega CellTiter-Glo cell viability assay. This assay was used to study the effect of compounds described herein in the following assays: (1) Ba/F3 EGFR-Del19/T790M; (2); Ba/F3 EGFR-Del19/C797S; and (3) Ba/F3 EGFR-Del19/T790M/C797S. P-EGFR Signaling Assays

EGFR^L858R/T790M = EGFR^L858R/T790M (Homo sapiens, UniProt P00533, L858R/T790M); assay: HTRF KinEASE-TK in vitro kinase assay, KINASE LT; type: biochemical
Description: as §1
(§3) Assays using an in vitro kinase assay kit (HTRF KinEASE-TK kit) were used to study the inhibitory activity of compounds described herein with respect to EGFR mutants such as (1) EGFRL858R, (2) EGFR^L858R/T790M, and (3) EGFR^L858R/T790M/C797S.

EGFR^L858R/T790M/C797S = EGFR^L858R/T790M/C797S (Homo sapiens, UniProt P00533, C797S/L858R/T790M); assay: HTRF KinEASE-TK in vitro kinase assay, KINASE LTC; type: biochemical
Description: as §1, §3

[1] = molecular target: Ba/F3 EGFR-Del19/T790M/C797S (Homo sapiens, UniProt P00533, T790M/C797S, cells depend on it, form not given); assay: Ba/F3 viability assay (CellTiter-Glo), BAF3 DTC; type: cell-based; settings: Ba/F3 EGFR-Del19/T790M/C797S cell viability
Description: as §1, §2

Ba/F3 EGFR-Del19/C797S = Ba/F3 EGFR-Del19/C797S (Homo sapiens, UniProt P00533, C797S, cells depend on it, form not given); assay: Ba/F3 viability assay (CellTiter-Glo), BAF3 DC; type: cell-based; settings: Ba/F3 EGFR-Del19/C797S cell viability
Description: as §1, §2

EGFRL858R = EGFRL858R (Homo sapiens, UniProt P00533, L858R); assay: HTRF KinEASE-TK in vitro kinase assay, KINASE L; type: biochemical; settings: EGFR L858R kinase
Description: as §1, §3

Ba/F3 EGFR-Del19/T790M, sequence (P00533 with tags, fused parts or gaps DEL746-750/T790M, form open): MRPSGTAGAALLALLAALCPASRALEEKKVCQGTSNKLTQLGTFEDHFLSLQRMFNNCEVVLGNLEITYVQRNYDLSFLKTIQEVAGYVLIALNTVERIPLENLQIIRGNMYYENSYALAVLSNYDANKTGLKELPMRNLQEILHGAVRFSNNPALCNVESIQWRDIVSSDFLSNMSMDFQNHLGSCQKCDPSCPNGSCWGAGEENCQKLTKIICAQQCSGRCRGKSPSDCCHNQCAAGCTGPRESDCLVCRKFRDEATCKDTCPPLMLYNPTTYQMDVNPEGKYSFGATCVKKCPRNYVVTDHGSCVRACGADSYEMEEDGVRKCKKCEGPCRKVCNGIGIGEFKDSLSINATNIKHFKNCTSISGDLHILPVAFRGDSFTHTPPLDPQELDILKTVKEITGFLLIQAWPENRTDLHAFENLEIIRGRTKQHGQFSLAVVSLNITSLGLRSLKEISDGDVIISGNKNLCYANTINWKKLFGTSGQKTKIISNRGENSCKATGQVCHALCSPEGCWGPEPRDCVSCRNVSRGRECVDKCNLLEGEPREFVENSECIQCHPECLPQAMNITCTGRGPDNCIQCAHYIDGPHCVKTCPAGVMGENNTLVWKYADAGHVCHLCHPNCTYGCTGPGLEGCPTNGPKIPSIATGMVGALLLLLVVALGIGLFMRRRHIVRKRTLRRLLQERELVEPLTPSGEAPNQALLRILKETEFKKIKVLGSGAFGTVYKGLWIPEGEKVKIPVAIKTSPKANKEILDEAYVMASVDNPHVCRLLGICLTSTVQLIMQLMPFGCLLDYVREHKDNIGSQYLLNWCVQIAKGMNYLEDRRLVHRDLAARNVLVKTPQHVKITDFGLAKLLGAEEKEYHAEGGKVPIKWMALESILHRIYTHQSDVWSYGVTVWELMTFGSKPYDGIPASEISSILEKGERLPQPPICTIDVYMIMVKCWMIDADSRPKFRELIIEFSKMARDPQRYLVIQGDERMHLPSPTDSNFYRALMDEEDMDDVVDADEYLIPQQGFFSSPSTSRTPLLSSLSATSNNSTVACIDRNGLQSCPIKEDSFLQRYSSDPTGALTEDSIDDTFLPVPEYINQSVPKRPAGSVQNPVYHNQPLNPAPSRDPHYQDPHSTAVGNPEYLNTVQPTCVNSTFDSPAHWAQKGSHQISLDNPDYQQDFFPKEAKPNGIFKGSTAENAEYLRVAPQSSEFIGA
EGFRL858R, sequence (P00533 25-1210 L858R): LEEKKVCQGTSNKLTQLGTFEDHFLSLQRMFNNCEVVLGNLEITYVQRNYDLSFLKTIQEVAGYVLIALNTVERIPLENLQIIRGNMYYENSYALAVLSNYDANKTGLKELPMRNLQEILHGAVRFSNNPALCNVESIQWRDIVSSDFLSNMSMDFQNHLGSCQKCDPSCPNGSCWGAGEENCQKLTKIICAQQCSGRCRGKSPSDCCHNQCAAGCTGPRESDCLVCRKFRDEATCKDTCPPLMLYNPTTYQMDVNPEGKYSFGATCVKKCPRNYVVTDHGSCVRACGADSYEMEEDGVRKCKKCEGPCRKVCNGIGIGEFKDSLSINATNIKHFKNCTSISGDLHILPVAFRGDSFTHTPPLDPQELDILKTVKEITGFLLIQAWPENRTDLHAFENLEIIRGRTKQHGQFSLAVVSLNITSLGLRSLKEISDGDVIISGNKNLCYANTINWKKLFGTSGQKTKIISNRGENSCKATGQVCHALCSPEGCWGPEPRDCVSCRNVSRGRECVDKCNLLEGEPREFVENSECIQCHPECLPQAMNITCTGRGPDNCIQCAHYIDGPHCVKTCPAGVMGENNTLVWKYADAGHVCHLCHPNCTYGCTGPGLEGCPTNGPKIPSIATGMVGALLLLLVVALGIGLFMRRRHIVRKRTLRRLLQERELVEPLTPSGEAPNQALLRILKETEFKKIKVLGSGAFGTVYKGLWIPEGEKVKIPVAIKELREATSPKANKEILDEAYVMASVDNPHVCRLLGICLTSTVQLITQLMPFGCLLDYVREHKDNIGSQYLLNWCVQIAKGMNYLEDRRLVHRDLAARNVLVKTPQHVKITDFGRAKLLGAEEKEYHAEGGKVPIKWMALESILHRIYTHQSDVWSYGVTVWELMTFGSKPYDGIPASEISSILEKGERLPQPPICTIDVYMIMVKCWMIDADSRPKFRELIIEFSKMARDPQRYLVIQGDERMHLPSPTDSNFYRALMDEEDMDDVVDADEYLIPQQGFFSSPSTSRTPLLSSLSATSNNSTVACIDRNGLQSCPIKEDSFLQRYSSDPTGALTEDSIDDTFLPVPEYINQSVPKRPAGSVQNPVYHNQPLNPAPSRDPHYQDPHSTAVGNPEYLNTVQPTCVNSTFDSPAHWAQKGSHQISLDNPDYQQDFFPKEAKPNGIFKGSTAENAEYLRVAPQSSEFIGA
EGFR^L858R/T790M, sequence (P00533 25-1210 T790M/L858R): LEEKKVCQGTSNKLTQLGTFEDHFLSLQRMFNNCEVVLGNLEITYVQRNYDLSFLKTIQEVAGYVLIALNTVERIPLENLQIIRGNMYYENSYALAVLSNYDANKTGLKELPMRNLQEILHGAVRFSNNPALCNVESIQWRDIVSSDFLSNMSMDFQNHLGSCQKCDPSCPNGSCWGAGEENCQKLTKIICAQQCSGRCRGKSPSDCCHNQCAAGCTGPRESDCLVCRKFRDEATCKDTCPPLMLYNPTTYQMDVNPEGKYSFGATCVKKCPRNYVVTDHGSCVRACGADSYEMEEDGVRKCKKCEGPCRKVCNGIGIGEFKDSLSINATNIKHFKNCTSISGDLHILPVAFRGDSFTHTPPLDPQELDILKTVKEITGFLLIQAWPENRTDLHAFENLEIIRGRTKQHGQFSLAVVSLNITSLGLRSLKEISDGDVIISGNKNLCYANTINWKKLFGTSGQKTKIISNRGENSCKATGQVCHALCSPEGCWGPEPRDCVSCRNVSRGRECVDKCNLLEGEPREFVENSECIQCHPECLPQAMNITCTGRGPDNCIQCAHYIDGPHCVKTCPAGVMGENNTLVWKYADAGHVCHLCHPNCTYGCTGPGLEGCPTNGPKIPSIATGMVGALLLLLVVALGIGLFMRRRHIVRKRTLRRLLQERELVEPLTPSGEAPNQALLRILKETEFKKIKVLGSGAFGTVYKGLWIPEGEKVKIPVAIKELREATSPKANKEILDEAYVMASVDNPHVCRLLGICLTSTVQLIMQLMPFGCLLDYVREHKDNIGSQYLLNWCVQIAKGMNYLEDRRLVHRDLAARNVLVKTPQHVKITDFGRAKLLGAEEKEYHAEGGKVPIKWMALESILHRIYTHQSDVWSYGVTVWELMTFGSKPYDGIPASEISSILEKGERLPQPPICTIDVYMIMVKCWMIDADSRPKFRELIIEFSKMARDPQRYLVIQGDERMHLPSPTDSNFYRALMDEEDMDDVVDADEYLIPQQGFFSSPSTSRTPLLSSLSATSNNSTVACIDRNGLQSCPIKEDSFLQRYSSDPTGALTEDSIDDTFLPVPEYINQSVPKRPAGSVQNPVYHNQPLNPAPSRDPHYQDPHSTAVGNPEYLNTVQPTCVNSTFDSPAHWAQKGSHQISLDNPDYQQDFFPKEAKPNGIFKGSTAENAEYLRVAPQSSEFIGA
EGFR^L858R/T790M/C797S, sequence (P00533 25-1210 T790M/C797S/L858R): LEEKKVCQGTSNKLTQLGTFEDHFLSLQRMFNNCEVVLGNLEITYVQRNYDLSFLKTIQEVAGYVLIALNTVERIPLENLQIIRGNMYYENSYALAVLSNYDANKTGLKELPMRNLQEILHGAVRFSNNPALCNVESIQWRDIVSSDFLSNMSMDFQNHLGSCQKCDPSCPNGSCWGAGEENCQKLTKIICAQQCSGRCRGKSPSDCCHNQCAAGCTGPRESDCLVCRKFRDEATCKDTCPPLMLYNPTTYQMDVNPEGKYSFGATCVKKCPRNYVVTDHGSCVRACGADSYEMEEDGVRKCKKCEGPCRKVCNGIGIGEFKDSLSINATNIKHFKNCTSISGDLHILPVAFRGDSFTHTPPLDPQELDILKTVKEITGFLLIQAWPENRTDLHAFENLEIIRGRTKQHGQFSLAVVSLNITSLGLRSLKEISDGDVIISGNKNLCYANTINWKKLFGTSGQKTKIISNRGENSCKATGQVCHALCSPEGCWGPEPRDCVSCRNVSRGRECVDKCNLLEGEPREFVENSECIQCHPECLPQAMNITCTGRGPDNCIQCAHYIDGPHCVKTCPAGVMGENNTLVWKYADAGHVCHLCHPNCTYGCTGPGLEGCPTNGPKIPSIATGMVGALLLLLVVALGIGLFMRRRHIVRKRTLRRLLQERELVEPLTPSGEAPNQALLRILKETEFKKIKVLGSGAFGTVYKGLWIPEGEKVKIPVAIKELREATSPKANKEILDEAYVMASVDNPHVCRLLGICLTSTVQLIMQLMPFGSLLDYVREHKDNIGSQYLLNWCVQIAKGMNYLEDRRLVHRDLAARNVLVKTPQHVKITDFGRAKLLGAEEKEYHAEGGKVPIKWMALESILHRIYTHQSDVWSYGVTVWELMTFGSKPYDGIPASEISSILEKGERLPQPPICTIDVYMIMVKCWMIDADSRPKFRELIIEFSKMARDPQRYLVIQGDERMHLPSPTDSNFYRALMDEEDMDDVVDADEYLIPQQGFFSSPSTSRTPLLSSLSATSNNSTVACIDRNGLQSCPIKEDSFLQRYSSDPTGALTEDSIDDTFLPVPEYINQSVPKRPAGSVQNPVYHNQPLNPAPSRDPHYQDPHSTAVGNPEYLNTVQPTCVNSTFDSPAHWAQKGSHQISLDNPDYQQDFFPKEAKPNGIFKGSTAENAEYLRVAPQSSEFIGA

Cc1cc2cc(n1)-c1cnn(C)c1CCC[C@@H](C)CN1/C(=N/C2=O)Nc2ccc(N3CCC(N4CC[C@H](N(C)C)C4)CC3)cc21 [(4)] was tested. Which GI50 (Ba/F3 EGFR-Del19/T790M) did it give?
Its GI50 is less than 50 nM.

And the IC50 (EGFR^L858R/T790M)?
The IC50 was less than 50 nM.

What about the IC50 (EGFR^L858R/T790M/C797S) of the same compound?
Its IC50 is less than 50 nM.

What about the GI50 [1] of the same compound?
The GI50 was less than 50 nM.

And the GI50 (Ba/F3 EGFR-Del19/C797S)?
Its GI50 is less than 50 nM.

What about the IC50 (EGFRL858R) of the same compound?
The IC50 was less than 50 nM.

With COc1ccncc1-c1ccc2c(c1)N1C[C@H](C)CCCc3c(cnn3C)-c3cc(cc(C)n3)C(=O)/N=C/1N2 [(9)] as the compound, how does the GI50 (Ba/F3 EGFR-Del19/T790M) read?
Its GI50 is less than 50 nM.

And the IC50 (EGFR^L858R/T790M)?
Its IC50 is less than 50 nM.

And the IC50 (EGFR^L858R/T790M/C797S)?
The IC50 was less than 50 nM.

And the GI50 [1]?
The GI50 was less than 50 nM.

What about the GI50 (Ba/F3 EGFR-Del19/C797S) of the same compound?
Its GI50 is less than 50 nM.

What about the IC50 (EGFRL858R) of the same compound?
The IC50 was less than 50 nM.

For Cc1cc2cc(n1)-c1cnn(C)c1CCC[C@@H](C)CN1/C(=N/C2=O)Nc2ccc(N3CCC(N4CCOCC4)CC3)cc21 [(24)], which GI50 (Ba/F3 EGFR-Del19/T790M) is on record?
The GI50 was less than 50 nM.

What about the IC50 (EGFR^L858R/T790M) of the same compound?
Its IC50 is less than 50 nM.

What about the IC50 (EGFR^L858R/T790M/C797S) of the same compound?
Its IC50 is less than 50 nM.

What about the GI50 [1] of the same compound?
The GI50 was less than 50 nM.

And the GI50 (Ba/F3 EGFR-Del19/C797S)?
The GI50 was less than 50 nM.

And the IC50 (EGFRL858R)?
Its IC50 is less than 50 nM.

What does the source list for Cc1cc2cc(n1)-c1cnn(C)c1CCCCCN1/C(=N/C2=O)Nc2ccc(CN3CCNCC3)cc21 [(46)]?
GI50 (Ba/F3 EGFR-Del19/T790M): < 50 nM; IC50 (EGFR^L858R/T790M): < 50 nM; IC50 (EGFR^L858R/T790M/C797S): < 50 nM; GI50 [1]: < 50 nM; GI50 (Ba/F3 EGFR-Del19/C797S): < 50 nM; IC50 (EGFRL858R): < 50 nM

How did the GI50 (Ba/F3 EGFR-Del19/T790M) turn out when Cc1cc2cc(n1)-c1cnn(C)c1CCCCCCN1/C(=N/C2=O)Nc2ccc(N(C)CCN(C)C)cc21 [(40)] was run?
The GI50 was less than 50 nM.

What about the IC50 (EGFR^L858R/T790M) of the same compound?
Its IC50 is less than 50 nM.

And the IC50 (EGFR^L858R/T790M/C797S)?
The IC50 was less than 50 nM.

And the GI50 [1]?
Its GI50 is less than 50 nM.

What about the GI50 (Ba/F3 EGFR-Del19/C797S) of the same compound?
The GI50 was 100 to 1000 nM.

What about the IC50 (EGFRL858R) of the same compound?
The IC50 was less than 50 nM.

Which GI50 (Ba/F3 EGFR-Del19/T790M) does the source give for Cc1cc2cc(n1)-c1cnn(C)c1CCCCCCN1/C(=N/C2=O)Nc2ccc(CN3CCOCC3)cc21 [(62)] here?
Its GI50 is no less than 1000 nM.

And the IC50 (EGFR^L858R/T790M)?
The IC50 was 100 to 1000 nM.

What about the IC50 (EGFR^L858R/T790M/C797S) of the same compound?
Its IC50 is 100 to 1000 nM.

And the GI50 [1]?
Its GI50 is 100 to 1000 nM.

And the GI50 (Ba/F3 EGFR-Del19/C797S)?
Its GI50 is 50 to 100 nM.

What about the IC50 (EGFRL858R) of the same compound?
The IC50 was less than 50 nM.

For Cc1cc2cc(n1)-c1cnn(C)c1CCC[C@@H](C)CN1/C(=N/C2=O)Nc2ccc(N3C[C@@H](C)N(C)[C@@H](C)C3)cc21 [(11)], which GI50 (Ba/F3 EGFR-Del19/T790M) is on record?
Its GI50 is less than 50 nM.

What about the IC50 (EGFR^L858R/T790M) of the same compound?
The IC50 was less than 50 nM.

What about the IC50 (EGFR^L858R/T790M/C797S) of the same compound?
The IC50 was less than 50 nM.

What about the GI50 [1] of the same compound?
The GI50 was less than 50 nM.

What about the GI50 (Ba/F3 EGFR-Del19/C797S) of the same compound?
The GI50 was less than 50 nM.

What about the IC50 (EGFRL858R) of the same compound?
Its IC50 is less than 50 nM.

For Cc1cc2cc(n1)-c1cnn(C)c1-c1cccc(c1)CN1/C(=N/C2=O)Nc2ccc(CN3CCN(C)CC3)cc21 [(61)], which GI50 (Ba/F3 EGFR-Del19/T790M) is on record?
Its GI50 is 100 to 1000 nM.

What about the IC50 (EGFR^L858R/T790M) of the same compound?
The IC50 was less than 50 nM.

What about the IC50 (EGFR^L858R/T790M/C797S) of the same compound?
The IC50 was less than 50 nM.

And the GI50 [1]?
The GI50 was 100 to 1000 nM.

And the GI50 (Ba/F3 EGFR-Del19/C797S)?
Its GI50 is 100 to 1000 nM.

What about the IC50 (EGFRL858R) of the same compound?
The IC50 was 100 to 1000 nM.

How did the GI50 (Ba/F3 EGFR-Del19/T790M) turn out when Cc1cc2cc(n1)-c1cnn(C)c1CCC[C@@H](C)CN1/C(=N/C2=O)Nc2ccc(N(CCN(C)C)CC3COC3)cc21 [(18)] was run?
The GI50 was 50 to 100 nM.

And the IC50 (EGFR^L858R/T790M)?
Its IC50 is less than 50 nM.

What about the IC50 (EGFR^L858R/T790M/C797S) of the same compound?
The IC50 was less than 50 nM.

What about the GI50 [1] of the same compound?
Its GI50 is less than 50 nM.

And the GI50 (Ba/F3 EGFR-Del19/C797S)?
The GI50 was 100 to 1000 nM.

What about the IC50 (EGFRL858R) of the same compound?
Its IC50 is less than 50 nM.

For COc1cc(N2CCN(C)CC2)cc2c1N/C1=N\C(=O)c3cc(C)nc(c3)-c3cnn(C)c3CCC[C@@H](C)CN12 [(3)], which GI50 (Ba/F3 EGFR-Del19/T790M) is on record?
The GI50 was 50 to 100 nM.

What about the IC50 (EGFR^L858R/T790M) of the same compound?
The IC50 was less than 50 nM.

And the IC50 (EGFR^L858R/T790M/C797S)?
The IC50 was less than 50 nM.

What about the GI50 [1] of the same compound?
The GI50 was less than 50 nM.

And the GI50 (Ba/F3 EGFR-Del19/C797S)?
Its GI50 is 100 to 1000 nM.

And the IC50 (EGFRL858R)?
The IC50 was less than 50 nM.

For Cc1cc2cc(n1)-c1cnn(C)c1CCC[C@@H](C)CN1/C(=N/C2=O)Nc2ccc(CN3CCN(C)CC3)cc21 [(35)], which GI50 (Ba/F3 EGFR-Del19/T790M) is on record?
The GI50 was less than 50 nM.

What about the IC50 (EGFR^L858R/T790M) of the same compound?
Its IC50 is less than 50 nM.

What about the IC50 (EGFR^L858R/T790M/C797S) of the same compound?
Its IC50 is less than 50 nM.

What about the GI50 [1] of the same compound?
The GI50 was less than 50 nM.

What about the GI50 (Ba/F3 EGFR-Del19/C797S) of the same compound?
The GI50 was less than 50 nM.

And the IC50 (EGFRL858R)?
Its IC50 is less than 50 nM.

For Cc1cc2cc(n1)-c1cnn(C)c1CCCCCCN1/C(=N/C2=O)Nc2ccc(CN3CCN(C)CC3)cc21 [(64)], which GI50 (Ba/F3 EGFR-Del19/T790M) is on record?
Its GI50 is less than 50 nM.

And the IC50 (EGFR^L858R/T790M)?
Its IC50 is less than 50 nM.

What about the IC50 (EGFR^L858R/T790M/C797S) of the same compound?
The IC50 was less than 50 nM.

What about the GI50 [1] of the same compound?
Its GI50 is less than 50 nM.

And the GI50 (Ba/F3 EGFR-Del19/C797S)?
The GI50 was 50 to 100 nM.

What about the IC50 (EGFRL858R) of the same compound?
Its IC50 is less than 50 nM.
